Results: US20050085426A1, “Acid-sensitive compounds, preparation and use thereof” (priority 2000, published 2005)

Key:
DNA = assay: Ethidium bromide fluorescence test of DNA compaction and release at pH 5; assay type: physicochemical; conditions: for variation in fluorescence over time (DNA not completely compacted): 0.4 nmol lipid/μg of DNA
Text: This can be easily shown by a fluorescence test with ethidium bromide (EtBr): the absence of fluorescence reflects the absence of free DNA, which means that the DNA is compacted.
In the text which follows, the two forms Syn and Trans of the acid-sensitive compound A as prepared in example 3 were used and the non-acid-sensitive analog described in the publication WO 97/18185, and which has the formula: H2N—(CH2)3—NH—(CH2)4—NH—(CH2)3—NH—CH2—CO-Gly-N[(CH2)17—CH3]2 was used as control. This non-acid-sensitive analog is called in the text which follows “control cationic lipid”.
The DNA is brought into contact with increasing quantities of control cationic lipid or of acid-sensitive compound A Syn or Trans, by mixing an equal volume of lipid solutions of different titers with the DNA solutions. Samples of 800 μl of DNA complexes having a concentration of 10 μg/ml are thus prepared in a sodium chloride solution at 150 mM with increasing quantities of control cationic lipid or of acid-sensitive compound A Syn or Trans.
At time t=0, 200 μl of buffer having a concentration of 0.1 mol/l at pH 5 are added to these samples and the samples are stored in an oven at 37° C. The fluorescence with ethidium bromide (EtBr) is measured over time (measurement at 20° C.) using a FluoroMax-2 (Jobin Yvon-Spex), with excitation and emission wavelengths of 260 nm and 590 nm respectively. The slit widths for excitation and for emission are set at 5 nm. The fluorescence value is recorded after addition of 3 μl of ethidium bromide at 1 g/l per ml of DNA/cationic lipid or DNA/acid-sensitive compound solution (at 0.01 mg of DNA/ml).

HeLa cells = assay: In vitro transfection of HeLa cells, luciferase activity; assay type: cell-based, human; conditions: for transfection activity: 1.0 to 10.0 nmol of lipid/μg of DNA; for effect of the presence of serum on transfection: with serum (10% FCS)
Protocol: This study was carried out at 4 different charge ratios: 1.0 or 4.0 or 6.0 or 10.0 nmol of lipid/μg of DNA. Each of these conditions was tested with and without fetal calf serum (“+ or − Serum”)
Culture of the cells: HeLa cells (American type Culture Collection (ATCC) Rockville, Md., USA) derived from a human cervical epithelium carcinoma, are cultured in the presence of a medium of the MEM (“minimum essential medium”) type with addition of 2 mM L-glutamine, 50 units/ml of penicillin, and 50 units/ml of streptomycin. The medium and the additives are obtained from Gibco/BRL life Technologies (Gaithersburg, Md., USA). The cells are cultured in flasks at 37° C. and at 5% carbon dioxide in an incubator.
Transfection: a day before the transfection, the HeLa cells are transferred into 24-well plates with a cell number of 30,000 to 50,000 per well. These dilutions represent approximately 80% confluence after 24 hours.
For the transfection, the cells are washed twice and incubated at 37° C. with 500 μl of medium with serum (10% FCS v/v) or without serum.
50 μl of complexes containing 0.5 μg of plasmid DNA are added to each well (the complexes are prepared at least 30 minutes before the addition to the well). After two hours at 37° C., the plates without serum are supplemented with 10% (v/v) of FCS (“Fetal Calf Serum”).
All the plates are placed for 36 hours at 37° C. and at 5% carbon dioxide.
Determination of the luciferase activity: Briefly, the transfected cells are washed twice with 500 μl of PBS (phosphate buffer) and then lysed with 250 μl of reagent (Promega cell culture lysis reagent, from the Luciferase Assay System kit).
An aliquot of 10 μl of supernatant of the lysate centrifuged (12,000×g) for 5 minutes at 4° C. is measured with the Wallac Victor2 luminometer (1420 Multilabel couter).
The luciferase activity is assayed by the emission of light in the presence of luciferin, of coenzyme A and of ATP for 10 seconds and expressed relative to 2000 treated cells. The luciferase activity is thus expressed as Relative Light Unit (“RLU”: “Relative light unit”) and normalized with the concentration of proteins in the sample obtained using a Pierce BCA kit (Rockford, Ill., USA).

[1] = tested on: DNA/control cationic lipid nucleolipid complexes; assay: Size of nucleolipid particles as a function of pH and time (stability of acid-sensitive compounds); assay type: physicochemical; conditions: for sensitivity at acidic pH values: pH 4, pH 5, pH 6; for stability at physiological pH: pH 7.4
Protocol: To this effect, the variation of the size of nucleolipid complexes (identical to those used in examples 9 and 10) is measured as a function of the pH and time, for various acid-sensitive pegoylated lipids, which makes it possible to cover different ranges of sensitivity.

[2] = tested on: control cationic lipid/DNA particles; assay: Colloidal stabilization of DNA/control cationic lipid particles, hydrodynamic diameter; assay type: physicochemical; conditions: as nonionic surfactant for nucleolipid particles
Text: In the present example, the cationic lipid used is that already used in examples 7 and 8 and described in the publication WO 97/18185 under the formula: H2N—(CH2)3—NH—(CH2)4—NH—(CH2)3—NH—CH2—CO-Gly-N[(CH2)17—CH3]2 (control cationic lipid).
Compounds C and D prepared in example 5 are used as acid-sensitive pegoylated lipids. As controls, there are used BRIJ 700 (SIGMA) and the pegoylated lipid of formula: [drawing 27] which are non-acid-sensitive analogs of compounds C and D, respectively, and which are known as nonionic surfactants (see for example the publication WO 98/34648). The two controls are used at 10 g/l in water.
(§1) All these samples have a control cationic lipid/DNA ratio of 1.5 (in nmol of lipid per μg of DNA) and contain increasing quantities of pegoylated lipid (expressed as polymer/DNA weight/weight ratio).
The measurement of the hydrodynamic diameter is made with a Coulter N4Plus apparatus using plastic cuvettes (four transparent sides) filled with 800 μl of the different solutions containing 0.01 mg of DNA/ml, the measurement being carried out at 90° in unimodal mode.

[3] = tested on: control cationic lipid/DNA nucleolipid particles; assay: Size of nucleolipid particles as a function of time at pH 5; assay type: physicochemical; conditions: for aggregation of the particles after 4 hours: pH 5, 37° C.
Protocol: The acid-sensitive pegoylated lipid used in this example is the compound D prepared in example 5, as well as its non-acid-sensitive analog called “Analog D” in the preceding example and in the text which follows.
as §1
The size of the particles is measured as a function of time.

[4] = tested on: Balb/C mice carrying subcutaneous M109 tumors; assay: In vivo gene transfer of DNA/cationic lipid/DOPE complexes, CAT assay
Protocol: The cationic lipid of formula: [drawing 28] and the neutral lipid DOPE (obtained from Avanti Polar Lipids, Birmingham, Ala.) where it is dissolved in chloroform and then mixed in equimolar quantities.
Appropriate quantities of compound D were dissolved in chloroform and added to the mixture. The quantities of compound D used are given in mol % of the total quantity of lipid.
The organic solvent is then evaporated under an argon stream so that a thin lipid film forms at the bottom of the tube. This film is dried under vacuum for at least 1 hour and then rehydrated with a 20 mM HEPES buffer at pH 7.4 and 5% dextrose, at 4° C. for 2 hours. The lipid suspension thus obtained is heated at 50° C. for 30 minutes, and then sonicated for 5 minutes so as to form a homogeneous suspension of liposomes of about 100 nm.
The DNA used is plasmid DNA containing the CAT gene under the control of a CMV promoter.
Equivalent volumes of liposome suspension (in appropriate concentration) are rapidly added to a DNA solution while mixing rapidly and vigorously. Overall, 1 μg of DNA forms a complex with 5 nmol of cationic lipid. The complexes formed have a diameter of approximately 100 to 240 nm.
About 6 week old female Balb/C mice are used in all the experiments. Each mouse receives a subcutaneous injection with 10^6 M109 cells in the right flank. When the tumours reach a size of about 300 mm^3, the mice receive 200 μl of DNA/lipid complexes containing 50 μg of DNA, by intravenous injection. The tissues are removed 24 hours after injection and stored at −70° C. until used.
The tissues are homogenized using a “FastPrep Cell Disrupter FP120” apparatus (Bio 101/Savant). The samples are then centrifuged at 1 000 revolutions/minute for 5 minutes. The quantity of CAT transgene expressed is determined using a standard CAT ELISA procedure (Roche, Ind.).

variation in fluorescence over time (DNA not completely compacted) (DNA; pH 5, 37° C.)	Compound	transfection activity (HeLa cells)	effect of the presence of serum on transfection (HeLa cells)	sensitivity at acidic pH values [1]	stability at physiological pH [1]	colloidal stabilizing power [2]	other results
no significant variation in fluorescence	CCCCCCCCCCCCCCCCCCN(CCCCCCCCCCCCCCCCCC)C(=O)CCCOC1OCC(CNC(=O)CNCCCNCCCCNCCCN)O1 (stereo not drawn) [Compound A Syn, 4-{4-[(2-{3-[4-(3-amino-propylamino)butylamino]propyl-amino}acetylamino)methyl]-[1,3]dioxolan-2-yloxy}-N,N-dioctadecylbutyramide tetraacetate]	high transfection activity	inhibition of transfection				release of the DNA over time (increase in fluorescence) (DNA; pH 5, 37° C., 1.7 and 6.0 nmol lipid/μg of DNA): release the DNA over time; time of release of DNA after the addition of acid (DNA; pH 5 and 37° C.): a few hours after the addition of acid
no significant variation in fluorescence	CCCCCCCCCCCCCCCCCCN(CCCCCCCCCCCCCCCCCC)C(=O)CNC(=O)CNCCCNCCCCNCCCN [control cationic lipid, H2N—(CH2)3—NH—(CH2)4—NH—(CH2)3—NH—CH2—CO-Gly-N[(CH2)17—CH3]2, reference compound]	high transfection activity	inhibition of transfection				
	methoxy-(polyethylene glycol 5000)-(N-(2-octadecyloxy-[1,3]dioxolan-4-ylmethyl)amide [Compound C]			high sensitivity at acidic pH values	relatively stable at physiological pH	comparable to that of the stable nonionic surfactants	duration of stabilization of the nucleolipid particles ([1]; pH 6, 37° C.): at least 4 hours
	methoxy-(polyethylene glycol 5000)-N-(2-methyl-2-octadecyloxy-[1,3]dioxan-5-yl)amide [Compound E]			high sensitivity at acidic pH values	relatively stable at physiological pH		start of aggregation of the nucleolipid particles after the acidification ([1]; pH 6, 37° C.): about 1 hour
	methoxy-(polyethylene glycol 5000)-N-{2-[17-(1,5-dimethylhexyl)-10,13-dimethyl-2,3,4,7,8,9,10,11,12,13,14,15,16,17-tetradecahydro-1H-cyclopenta[a]-phenanthren-3-yloxy]-[1,3]dioxolan-4-ylmethyl}amide [Compound D]					comparable to that of the stable nonionic surfactants	aggregation of the particles after 4 hours ([3]; pegoylated lipid/DNA ratio of 0.5): completely formed into aggregates; aggregation of the particles after 4 hours ([3]; pegoylated lipid/DNA ratio of 1): not at all or only slightly; colloidal stability of the particles at time t=0 ([3]; pH 5, t=0, regardless of the compound/DNA ratio): the same stability; increase of the gene transfer activity specific to the tumors relative to the lungs (factor) ([4]; M109 tumors versus lungs): 40; gene transfer in the tumors ([4]; M109 tumors, intravenous injection, 50 μg of DNA, 24 hours after injection, increasing quantity of pegoylated lipid): gene transfer does not appear to be affected in the tumors; transfection activity in the lungs ([4]; intravenous injection, 50 μg of DNA, tissues 24 hours after injection, increasing quantity of pegoylated lipid): the transfection activity is also inhibited in the lungs
